The test system of experiment [1] is P. aeruginosa (ATCC 27853). Briefly: Disk diffusion antimicrobial test, P. aeruginosa. Format: cell-based, Pseudomonas areuginosa. The settings on record: Pseudomonas aeruginosa, ATCC27853, Gram-negative, 20 mg per disc (title), concentration 20 µg (footnote). A digest of the protocol:
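Disk diffusion: 6 mm paper discs soaked with 20 μl compound in DMSO at 1 mg/mL, placed on inoculated nutrient agar (pH 7.2). Bacteria incubated 24 h at 37 °C, yeast 48–72 h at 30 °C; growth inhibition zone measured in mm.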

Experiment [2] deals with caspase-3. Briefly: Caspase-3 colorimetric assay in MCF-7 cells. Format: cell-based, human. The settings on record: for Caspase-3 Activity %: MCF-7 cells treated at IC50 concentration, control 10.2 ± 2.84, mean ± SD; for Elevation of active caspase-3 protein levels compared to the control: MCF-7 cells, IC50 concentration. From the text:
(§1) The promising antiproliferative results reported for compounds 11a, 11b, 12a, 12b and 13c against cell lines under study have prompted us to investigate the mechanism of cell death induced by these compounds. Apoptosis induction was examined in both MCF-7 and HCT-116 cancer cells by assaying the level of its key protein markers, namely: proapoptotic (p53, Bcl 2-associated X, Bax and caspases3) and antiapoptotic (B-cell lymphoma-2, Bcl-2). MCF-7 and HCT-116 cells undergoing apoptosis was detected by use of the ELISA technique. Protein marker levels were quantified according to Bradford assay.
(§2) Briefly, cells ([…] and HCT) were seeded at a concentration of 1.2–1.8 × 10^3 cells/well in 6-well plates. After 48-h treatment, the collected cells were lysed and centrifuged at 10,000 rpm for 20 min at 4 °C. The protein concentration was measured in the supernatant by Bradford protein assay. Volume containing […] of total protein was incubated with […] of caspase substrate in […] of the reaction buffer at 37 °C for 1 h in the dark. Caspase-3 activity was determined by a microplate reader at 405 nm using a caspase-3 colorimetric assay kit (Abcam) according to the manufacturer’s instructions. In vitro protein level quantitative measurement of apoptotic marker p53, Bcl-2-associated X (Bax) and antiapoptotic marker B-cell lymphoma-2 (Bcl-2) in cell lysate were assessed by Enzyme-Linked Immunosorbent Assay Simple Step ELISA® (ab199080, ab119506 and ab171571; Abcam) according to the manufacturer’s instructions.

Experiment [3] relates to MCF-7 (human breast cancer). Briefly: MTT cytotoxicity assay, MCF-7. Format: cell-based. To be noted: for inhibition at 100 µg/mL: MCF7, 100 µg/ml, 48 h, read-out: Growth Inhibition (%) MCF-7; for IC50: MCF7, 48 h post-treatment.
Description: (§5) MCF-7 (human breast cancer), HCT-116 (human colon cancer) and HepG2 (human liver cancer) cell lines were obtained from Karolinska Institute, Stockholm, Sweden. All cells were maintained in RPMI 1640 medium. The media were supplemented with 10% heat-inactivated fetal bovine serum plus 1% antibiotic-antimycoticmixture (10,000 U/mL of potassium penicillin, 10,000 μg/mL of streptomycin sulfate, 25 μg/mL of amphotericin B and 1% of L glutamine (Biowest, USA)). BJ-1 of a human skin fibroblast derived from normal foreskin was obtained from ATCC® CRL-2522™ as a frozen ampoule with about 1 × 10^6 cells per 1 ml volume. BJ-1 was maintained in MEM with 2 mM of L-glutamine and Earle’s salts medium.
(§6) Cell viability was studied using the MTT 3-(4,5-dimethylthiazol-2-yl)-2,5-diphenyl-tetrazolium bromide (Bio Basic Canada Inc. Toronto, Canada) assay [33]. The steps were executed in a sterile laminar air flow cabinet biosafety class II level (Baker, SG403INT; Sanford, ME, USA). All incubations were carried out at 37 °C in a 5% CO2 incubator under a humidified atmosphere of 95% (Sheldon, TC2323; Cornelius, OR, USA). Cells were seeded into 96-well microtiter plastic plates at a concentration of (10^4 cells/well) and allowed to adhere for 24 h. The medium was aspirated and then added to the cells with the test compounds 11a–c, 12a–c, 13a–i, 14a–i and 15a,b at a single dose of 100 μg/mL in DMSO. After incubation of the medium for 48 h, 40 μL of MTT salt (2.5 μg/mL) was added to each well and then incubated for an additional 4 h. To stop the reaction and dissolve any formed formazan crystals, 200 μL of 10% sodium dodecyl sulfate (SDS) were added to each well and incubated overnight at 37 °C. The amount of formazan product was measured at 595 nm with a reference wavelength of 690 nm as a background using a microplate reader (Bio-Rad Laboratories, model 3350, California, USA). For the untreated cells (negative control), the medium was added instead of the tested compounds. […] Dimethylsulfoxide (DMSO) was the vehicle used for dissolution of the testing compound, and its final concentration on the cells was less than 0.2%. At the same dilution, the solvent concentration was the same for all drugs and between the control and drug treatments.
A further experiment relates to B. subtilis (ATCC 6633). Briefly: Disk diffusion antimicrobial test, B. subtilis. Format: cell-based, Bacillus subtilis. The settings on record: Bacillus subtilis, ATCC6633, Gram-positive, 20 mg per disc (title), concentration 20 µg (footnote). How it is done: (§3) The newly synthesized compounds were chosen to be evaluated in vitro towards a variety of pathogenic microorganisms; Gram-positive bacteria: S. aureus (ATCC 6538) and B. subtilis (ATCC 6633); Gram-negative bacteria: P. areuginosa (ATCC 27853) and E. coli (DSMZ 1058); yeast: C. albicans (ATCC 10231) and S. cerevisiae (ATCC 9080) and fungi: A. niger (NRRL A-326) using the disk diffusion method at a single dose of 20 µl. The results are shown in Table 1 as the growth inhibition zone (mm).
(§4) The antimicrobial activity of target compounds were evaluated to be in vitro against a variety of pathogenic microorganisms, namely Staphylococcus aureus (ATCC 6538), Bacillus subtilis (ATCC 6633) (Gram-positive bacteria), Pseudomonas areuginosa (ATCC 27853), Escherichia coli (DSMZ 1058) (Gram-negative bacteria), Candida albicans (ATCC 10231), Saccharomyces cerevisiae (ATCC 9080) (Yeast) and Aspergillus niger (NRRL A-326) (Fungi) using the disk diffusion method at a single dose of 20 µg. The microorganisms were served and obtained from the Microbial Biotechnology Department, National Research Center, Giza, Egypt. Amphotericin, amoxicillin and ciprofloxacin were used as reference drugs (Oxoid™ Disks). The tested compounds 11a–c, 12a–c, 13a–i, 14a–i and 15a,b were dissolved in dimethylsulphoxide (DMSO) at a concentration of 1 mg/mL. Aliquots of 20 μl were soaked on filter paper discs (6 mm) and dried at room temperature under sterilized conditions. The paper discs were placed on inoculated agar plats and then incubated for 24 h at 37 °C for bacterial strains and after 48–72 h incubation at 30 °C for fungi. Both bacterial and yeast strains were grown on nutrient agar medium (g/l): beef extract, 3; peptone, 10 and agar, 20 at pH of 7.2. The fungal strain was grown on Czapek-Dox medium (g/l): sucrose, 30; NaNO3, 3; MgSO4.7H2O, 0.5l; KCl, 0.5; FeSO4, 0.01; K2HPO4, 1 and agar, 20 at pH of 6.0.

Experiment [4] deals with normal skin fibroblast cells (BJ-1). Briefly: MTT cytotoxicity assay, normal skin fibroblast BJ-1. The settings on record: Homo sapiens, 48 h, read-out: Growth Inhibition (%) BJ-1. Format: cell-based.
Description: as §5, §6
For experiment [5], the system named is caspase-3. Briefly: Caspase-3 colorimetric assay in HCT-116 cells. Format: cell-based, human. The settings on record: HCT-116 cells treated at IC50 concentration; control 13.60 ± 2.45; mean ± SD.
Description: as §1, §2

Experiment [6] can be described thus: DPPH free radical scavenging assay. Format: biochemical. To be noted: concentration of 20µg/l, mean ± SD of three experiments. A digest of the protocol:
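Compound DMSO stock (1 mg/mL) added to fresh DPPH in DMSO (20 mg/L), vortexed 1 min, kept dark for 15–60 min. Absorbance at 517 nm; % scavenging = (A control − A sample)/A control × 100; triplicates averaged. Ascorbic acid served as reference.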

For experiment [7], the system named is S. cerevisiae (ATCC 9080). Briefly: Disk diffusion antimicrobial test, S. cerevisiae. Format: cell-based. The settings on record: Saccharomyces cerevisiae, ATCC9080, yeast, 20 mg per disc (title), concentration 20 µg (footnote). As for the experimental part: as §3, §4
Setting [8] is: 15 min, read-out: Scavenging Activity (%) on DPPH radicals at 15 min.
[9] abbreviates: 30 min, read-out: Scavenging Activity (%) on DPPH radicals at 30 min.
Setting [10] is: 45 min, read-out: Scavenging Activity (%) on DPPH radicals at 45 min.
Setting [11] is: 60 min, read-out: Scavenging Activity (%) on DPPH radicals at 60 min.

Values after ≈ are worked out from the molar mass of the structure shown. Where two headings read alike, the source gives them in different places.

On to `COc1c(C2=NNC3(C2)C(=O)Nc2ccccc23)c(O)cc2occc12` (stereo not shown) [Compound 11a, 5’-(6-Hydroxy-4-methoxy-benzofuran-5-yl)-2’,4’-dihydrospiro(indoline-3,3’-pyrazol)-2-one], for which the zone of inhibition at 20 µg/disc in experiment [1] worked out at 8 mm; with B. subtilis (ATCC 6633) it was 12 mm; in experiment [7] it was 16 mm. In addition, the “Caspase-3 Activity %” value in the experiment with caspase-3 [2] was 16.67 ± 0.67%; with caspase-3 [5], 19.12 ± 0.89%. The “Elevation of active caspase-3 protein levels compared to the control” value (“Elevation … compared to the control” for short) in the experiment with caspase-3 [2] is ~ 1.6 folds. Besides, the inhibition at 100 µg/mL in experiment [3] amounted to 94.3%; in experiment [4], 6.2%. The IC50 in experiment [3] came out at 21.1 µg/mL (≈ 60.4 µM). Further, the inhibition in experiment [6] (setting [8]) came to 6.86 ± 1.17%; in experiment [6] (setting [9]) it was 10.3 ± 1.37%; in experiment [6] (setting [10]), 17.7 ± 1.28%; in experiment [6] (setting [11]), 26.9 ± 1.56%.

On to `COc1cc2occc2c(OC)c1C1=NNC2(C1)C(=O)Nc1ccccc12` (stereo not shown) [Compound 11b, 5’-(4,6-Dimethoxy-benzofuran-5-yl)-2’,4’-dihydrospiro(indoline-3,3’-pyrazol)-2-one], for which the zone of inhibition at 20 µg/disc worked out at 12 mm in experiment [1], 12 mm with B. subtilis (ATCC 6633) and 18 mm in experiment [7]. Also, the figures for the “Caspase-3 Activity %” value in the experiment with caspase-3 [2] and with caspase-3 [5] were 16.19 ± 0.79% and 14.04 ± 0.54%, respectively. For the same compound, the “Elevation … compared to the control” value in the experiment with caspase-3 [2] is listed as ~ 1.6 folds. Also, the inhibition at 100 µg/mL was 92.3% in experiment [3] and 10.1% in experiment [4]. In experiment [3], this compound returned an IC50 of 19.4 µg/mL (≈ 53.4 µM). For the same compound, the inhibition in experiment [6] (setting [8]) was 9.6 ± 1.77%; in experiment [6] (setting [9]), 14.3 ± 1.52%; in experiment [6] (setting [10]), 20.4 ± 1.65%; in experiment [6] (setting [11]) it was 30.8 ± 2.04%.

As for `COc1c(C2=NNC3(C2)C(=O)Nc2ccccc23)c(O)c(OC)c2occc12` (stereo not shown) [Compound 12a, 5’-(6-Hydroxy-4,7-dimethoxy-benzofuran-5-yl)-2’,4’-dihydrospiro(indoline-3,3’-pyrazol)-2-one], the values for the zone of inhibition at 20 µg/disc (in experiment [1]; in the experiment on B. subtilis (ATCC 6633); in experiment [7]) were 18 mm, 16 mm and 10 mm, respectively. The figures for the “Caspase-3 Activity %” value in the experiment with caspase-3 [2] and in the experiment on caspase-3 [5] were 14.18 ± 0.74% and 17.43 ± 0.58%, respectively. Moreover, the “Elevation … compared to the control” value in the experiment on caspase-3 [2] is ~1.4 folds. Besides, the inhibition at 100 µg/mL in experiment [3] came to 93.6%; in experiment [4], 9.1%. Further, the IC50 in experiment [3] is 20.2 µg/mL (≈ 53.2 µM). Besides, the inhibition in experiment [6] (setting [8]) was 56.4 ± 1.08%; in experiment [6] (setting [9]), 67.1 ± 1.45%; in experiment [6] (setting [10]), 76.9 ± 1.51%; in experiment [6] (setting [11]) it was 81.4 ± 1.37%.

Take `COc1c(C2=NNC3(C2)C(=O)Nc2ccccc23)c(OC)c2ccoc2c1OC` (stereo not shown) [Compound 12b, 5’-(4,6,7-Trimethoxy-benzofuran-5-yl)-2’,4’-dihydrospiro(indoline-3,3’-pyrazol)-2-one]: the zone of inhibition at 20 µg/disc in experiment [1] worked out at 24 mm; in the experiment with B. subtilis (ATCC 6633) it was 18 mm; in experiment [7], 10 mm. For the same compound, the “Caspase-3 Activity %” value in the experiment on caspase-3 [2] was 47.25 ± 1.89%; in the experiment on caspase-3 [5], 33.12 ± 1.37%. Also, the “Elevation … compared to the control” value with caspase-3 [2] is given as ~4.6 folds. Further, the inhibition at 100 µg/mL in experiment [3] was determined as 97.4%; in experiment [4] it was 5%. This compound also gave an IC50 in experiment [3] of 16.7 µg/mL (≈ 42.5 µM). In addition, the inhibition in experiment [6] (setting [8]) came to 17.3 ± 1.53%; in experiment [6] (setting [9]) it was 23.5 ± 1.64%; in experiment [6] (setting [10]) it was 30.6 ± 1.49%; in experiment [6] (setting [11]), 40.6 ± 1.46%.

(Values after publication PMC7179167 (Molecules, 2020).)
